Values after ≈ are worked out from the molar mass of the structure shown. Where two headings read alike, the source gives them in different places.
How the values were obtained:
[1] = system: Pseudomonas aeruginosa IID 1042; assay: test for immediate effect (phenol coefficient method); assay type: cell-based; settings: of three runs, conc. 0.03%, 20° C.
Procedure: (§1) Immediate effect of this compound was evaluated in accordance with the phenol coefficient method described in "Directions for Hygienic Tests" compiled by the Ministry of Health and Welfare of Japan. The method is as follows. (1) Culture medium Each 10 ml of the bouillon described below was taken into test tubes and they were sterilized with high pressure steam at 120° C. for 20 minutes. (2) Test method Diluted solutions of a series of concentrations of the sample compound were prepared for each of microorganisms listed in Table 2. Each 10 ml of the solutions was put into an appraisal test tube and the test tubes were placed in a thermostat bath kept at 20° C. Each microorganism was subcultured in the above described bouillon medium for testing disinfectants for three generations (37° C. for 48 hours). Each 1 ml of each culture was placed in each of the above-described series of appraisal test tubes and well mixed. After 2.5, 5, 10 and 15 minutes, 0.1 ml of the content of each appraisal test tube was taken and inoculated onto each portion of the bouillon medium for testing disinfectants. […] Each test was carried out three times. Immediate effect of disinfectants was compared by number of test runs in which microorganism growth was observed. […]

[2] = system: Staphylococcus aureus FDA 209-P; assay: as above; assay type: cell-based; settings: of three runs, conc. 0.0005%, 20° C.
Procedure: as §1

[3] = system: Escherichia coli IID 861; assay: as above; assay type: cell-based; settings: of three runs, conc. 0.001%, 20° C.
Procedure: as §1

[4] = gluconate salt; cited from earlier work
[5] = system: Staphylococcus aureus (clin'ly col'ted MRSA); assay: minimum growth inhibition concentration, agar dilution (second MRSA line); assay type: cell-based; settings: Mueller-Hinton agar, digluconate, clinically collected MRSA
Procedure: (§2) Germicidal activity of the compound prepared in Example 1 (Compound I) was evaluated by the minimum growth inhibition concentration method (based on the standard method stipulated by Japan Society of Chemotherapy) and the phenol coefficient method.
(§3) A portion of the digluconate salt of the compound of Example 1 was dissolved in water and the solution was heated to dryness on a water bath. The dried salt was dissolved in acetic acid (potentiometric titration grade) and the concentration thereof was determined by potentiometric titration using a perchloric acid solution. The gluconate acid salt solution, whose concentration was thus determined, was diluted to predetermined concentrations with sterilized water. Each 1 ml of the solution of each concentration was placed in a Petri dish, 9 ml of Mueller-Hinton agar (supplied by Difco) was added thereto and well mixed. Thus sensitivity test media were prepared. The concentrations of the compound were 200 μg/ml and 2^n times wherein (n=-8 to 2). Separately, microorganism strains indicated in Table 1 were subcultured in propagation media (using Mueller-Hinton broth supplied by Difco) at 37° C. for 24 hours. The microorganism concentration was adjusted to 10^6 /ml. The thus obtained cultures were respectively inoculated on a series of sensitivity measuring culture media using an inoculation rod. […] The results are shown in Table 1 together with the result on chlorhexidine as a control.
(§4) Disinfecting effect of the above-prepared compounds was tested by measurement of minimum growth inhibition concentration and by the test for immediate effect in the same manner as in Example 3.

[6] = administered to mucous membranes in a conventionally employed concentration; cited from earlier work
[7] = system: general bacteria; settings: cited from earlier work
[8] = system: Achromobacter xylosoxidans RIMD 0101001; assay: minimum growth inhibition concentration, agar dilution; assay type: cell-based; settings: RIMD0101001, Mueller-Hinton agar, digluconate
Procedure: as §2, §3, §4

[9] = system: Staphylococcus epidermis IID 866; assay: as above; assay type: cell-based
Procedure: as §2, §3, §4

[10] = system: Pseudomonas cepacia (collected Chiba Univ.); assay: as above; assay type: cell-based; settings: Burkholderia cepacia, Mueller-Hinton agar, digluconate
Procedure: as §2, §3, §4

[11] = system: Escherichia coli NIHJ JC-2; assay: as above; assay type: cell-based
Procedure: as §2, §3, §4

[12] = system: Pseudomonas aerugimosa (clinically collected); assay: as above; assay type: cell-based; settings: Mueller-Hinton agar, digluconate
Procedure: as §2, §3, §4

[13] = system: Klebsiella pneumoniae IID 865; assay: as above; assay type: cell-based
Procedure: as §2, §3, §4

[14] = system: Escherichia coli IID 861; assay: as above; assay type: cell-based
Procedure: as §2, §3, §4

[15] = system: Flavobacterium meningosepticum RIMD 0614002; assay: as above; assay type: cell-based; settings: Elizabethkingia meningoseptica, RIMD0614002; Mueller-Hinton agar; digluconate
Procedure: as §2, §3, §4

[16] = system: Proteus vulgaris IID 874; assay: as above; assay type: cell-based; settings: IID874, Mueller-Hinton agar, digluconate
Procedure: as §2, §3, §4

[17] = system: Alcaligenes faecalis IPO 13111; assay: as above; assay type: cell-based; settings: IPO13111, Mueller-Hinton agar, digluconate
Procedure: as §2, §3, §4

[18] = system: some Gram-negative bacteria, especially Pyocyaneus bacilli; settings: cited from earlier work
[19] = system: Staphylococcus aureus (clin'ly col'ted MRSA); assay: minimum growth inhibition concentration, agar dilution (first MRSA line); assay type: cell-based
Procedure: as §2, §3, §4

[20] = system: Pseudomonas aeruginosa IID 1042; assay: minimum growth inhibition concentration, agar dilution; assay type: cell-based
Procedure: as §2, §3
(§5) Compounds of formula I, wherein the trifluoromethyl group is located at the p-position and n is 2, 3, 5, 8 and 11, were prepared starting from ethylene diamine dichloride, 1,3-propane diamine dichloride, 1,5-pentane diamine dichloride, 1,8-octane diamine dichloride or 1,11-undecane diamine dichloride, sodium dicyanamide and 4-trifluoromethyl aniline hydrochloride in accordance with the procedures as described above and minimum growth inhibition concentration (MIC) was determined in the same manner as above.
as §4
(§6) Compounds of formula I, wherein the trifluoromethyl group is located at the m-position and n is 2, 3, 5 and 8, 11 were prepared starting from ethylene diamine dihydrochloride, 1,3-propane diamine dihydrochloride, 1,5-pentane diamine dihydrochloride, 1,8-octane diamine dihydrochloride or 1,11-undecane diamine dihydrochloride, sodium dicyanamide and 3-trifluoromethylaniline hydrochloride in accordance with the procedures of Example 4 and germicidal activity thereof were determined in the same manner.

[21] = system: Staphylococcus aureus FDA 209-P; assay: as above; assay type: cell-based; settings: FDA209, Mueller-Hinton agar
Procedure: as §2, §3, §5, §4, §6

[22] = system: Escherichia coli IID 951; assay: as above; assay type: cell-based
Procedure: as §2, §3, §5, §4, §6

[23] = system: Serratia marcescens IID 602; assay: as above; assay type: cell-based
Procedure: as §2, §3, §5, §4, §6

[24] = system: dental plaque; settings: Warner et al, 1973; cited from earlier work
[25] = Pseudomonas aeruginosa, IID1042, Mueller-Hinton agar, read-out: MIC

## [H]/N=C(\N/C(=N/[H])NCCCCCCNC(=N)NC(=N)Nc1ccc(Cl)cc1)Nc1ccc(Cl)cc1 [CHXD, chlorhexidine, reference compound]
[1]; contact time 2.5 min
  number of test runs in which microorganism growth was observed: 2
[1]; contact time 5.0 min
  number of test runs in which microorganism growth was observed: 1
[1]; contact time 10.0 min
  number of test runs in which microorganism growth was observed: 0
[1]; contact time 15.0 min
  number of test runs in which microorganism growth was observed: 0
[2]; contact time 2.5 min
  number of test runs in which microorganism growth was observed: 3
[2]; contact time 5.0 min
  number of test runs in which microorganism growth was observed: 1
[2]; contact time 10.0 min
  number of test runs in which microorganism growth was observed: 0
[2]; contact time 15.0 min
  number of test runs in which microorganism growth was observed: 0
[3]; contact time 2.5 min
  number of test runs in which microorganism growth was observed: 3
[3]; contact time 5.0 min
  number of test runs in which microorganism growth was observed: 3
[3]; contact time 10.0 min
  number of test runs in which microorganism growth was observed: 3
[3]; contact time 15.0 min
  number of test runs in which microorganism growth was observed: 3
[4]
  solubility in water: high solubility in water
[5]
  MIC: 3.13 µg/mL (≈ 6.19 µM)
[6]
  shock symptoms: sometimes causes shock symptoms
[7]
  disinfecting effect: exhibits disinfecting effect on a wide range of general bacteria
[8]
  MIC: 25 µg/mL (≈ 49.5 µM)
[9]; IID866
  MIC: 1.56 µg/mL (≈ 3.09 µM)
[10]
  MIC: 100 µg/mL (≈ 198 µM)
[11]; NIHJJC2
  MIC: 1.56 µg/mL (≈ 3.09 µM)
[12]
  MIC: 100 µg/mL (≈ 198 µM)
[13]; IID865
  MIC: 6.25 µg/mL (≈ 12.4 µM)
[14]; IID861
  MIC: 1.56 µg/mL (≈ 3.09 µM)
[15]
  MIC: 200 µg/mL (≈ 396 µM)
[16]
  MIC: 200 µg/mL (≈ 396 µM)
[17]
  MIC: 50 µg/mL (≈ 98.9 µM)
[18]
  effect against some Gram-negative bacteria, especially Pyocyaneus bacilli: less effective
[19]; MRSA
  MIC: 6.25 µg/mL (≈ 12.4 µM)
[20]; [25]
  MIC: 100 µg/mL (≈ 198 µM)
[21]
  MIC: 0.78 µg/mL (≈ 1.54 µM)
[22]; IID951
  MIC: 1.56 µg/mL (≈ 3.09 µM)
[23]; IID602
  MIC: 6.25 µg/mL (≈ 12.4 µM)

## N=C(NCCCCCCNC(=N)NC(=N)Nc1cccc(C(F)(F)F)c1)NC(=N)Nc1cccc(C(F)(F)F)c1 [Ex. 5, 1,6-bis(N^5-m-trifluoromethylphenyl-N^1-biguanido)-hexane]
[3]; contact time 2.5 min
  number of test runs in which microorganism growth was observed: 2
[3]; contact time 5.0 min
  number of test runs in which microorganism growth was observed: 1
[3]; contact time 10.0 min
  number of test runs in which microorganism growth was observed: 0
[3]; contact time 15.0 min
  number of test runs in which microorganism growth was observed: 0
[5]
  MIC: 1.56 µg/mL (≈ 2.72 µM)
[8]
  MIC: 25 µg/mL (≈ 43.7 µM)
[9]; IID866, Mueller-Hinton agar, digluconate, IID 866, read-out: MIC
  MIC: 1.56 µg/mL (≈ 2.72 µM)
[10]
  MIC: 50 µg/mL (≈ 87.3 µM)
[11]; NIHJJC2, Mueller-Hinton agar, digluconate, NIHJ JC-2, read-out: MIC
  MIC: 1.56 µg/mL (≈ 2.72 µM)
[12]
  MIC: 25 µg/mL (≈ 43.7 µM)
[13]; IID865, Mueller-Hinton agar, digluconate, read-out: MIC
  MIC: 1.56 µg/mL (≈ 2.72 µM)
[14]; IID861, Mueller-Hinton agar, digluconate, IID 861, read-out: MIC
  MIC: 1.56 µg/mL (≈ 2.72 µM)
[15]
  MIC: 200 µg/mL (≈ 349 µM)
[16]
  MIC: 12.5 µg/mL (≈ 21.8 µM)
[17]
  MIC: 6.25 µg/mL (≈ 10.9 µM)
[24]
  antiplaque activity: superior antiplaque activity at lower concentrations
[19]; Mueller-Hinton agar, digluconate, clinically collected MRSA, first line, read-out: MIC
  MIC: 3.13 µg/mL (≈ 5.47 µM)
[20]; Mueller-Hinton agar, listed as n = 6 (m-position)
  MIC: 25.0 µg/mL (≈ 43.7 µM)
[20]; [25]
  MIC: 25 µg/mL (≈ 43.7 µM)
[21]
  MIC: 0.78 µg/mL (≈ 1.36 µM)
[22]; IID951, Mueller-Hinton agar, IID 951, read-out: MIC
  MIC: 1.56 µg/mL (≈ 2.72 µM)
[23]; IID602, Mueller-Hinton agar, IID 602, read-out: MIC
  MIC: 6.25 µg/mL (≈ 10.9 µM)

Reference: patent US5478864A, “Method for disinfection using a 1,n-bis(N^5 -trifluoromethyl-phenyl-N^1 -biguanido)-alkane” (Mitsubishi Materials Corp., priority 1991, dated 1995)
